From US12234236B1, “GLP-1R agonist and therapeutic method thereof” (Ascletis Pharma (China) Co., Limited, priority 2023, dated 2025)

Legend:
hGLP-1R = molecular target: T1, hGLP-1R (Homo sapiens, UniProt P43220); assay: hGLP-1R agonist cAMP stimulation assay; format: cell-based; settings: Flp-In-293-GLP1R cells, 30 minutes at 37° C.
T1 construct: expressed in transfected cells; host or cells: Flp-In-293 (HEK293-derived) cells carrying GLP1R
Method: 1. Cell Line and Reagent Preparation
• 1) Cell line: Flp-In-293-GLP1R • 2) Medium: DMEM+10% FBS+1×Penicillin-Streptomycin+200 μg/mL HB • 3) Test buffer: 1×HBSS+20 mM HEPES+0.1% BSA+500 μM IBMX 2. Agonist Test • a) Flpin-293-GLP1R cells were incubated in a 384-well assay plate (6007680-50, PB) using a complete medium with 2,000 cells per well. • b) Prepared a 4× […] working solution with assay buffer. • c) Added 5 μL of 4× Compound Working Solution to the cell plate and incubated at 37° C. for 30 minutes. • d) Diluted the Eu-cAMP tracer (1/50) with lysis buffer and added 10 μl/well to the assay plate. • e) Diluted Ulight-anti-cAMP (1/150) with lysis buffer and added 10 μl/well to the assay plate. • f) The assay plate was incubated at constant temperature for 1 hour. • g) Read the plate on Envision 2105 plate reader at […]. 3.

[1] = Single-dose oral administration pharmacokinetic study in SD rats; format: in vivo; settings: Sprague-Dawley, rat, whole blood, 5 mg/kg; for AUC(0-t): read-out: AUC0-48h
Method: 2. Single-Dose Oral Administration Pharmacokinetic (PK) Studies in Sprague-Dawley (SD) Rats
Pharmacokinetic (PK) studies after a single-dose oral administration for compounds. Protocol: Animals: Sprague-Dawley (SD) rats; Solvent: Solutol: PEG400: Tween80: Saline=10:40:2:48 (v/v/v/v); Dose: 5 mg/kg; Dosing concentration: 0.5 mg/mL in the solvent; Dosing volume: 10 mL/kg; Blood sampling time points: pre-dose, 0.25 h, 0.5 h, 1 h, 2 h, 3 h, 4 h, 8 h, 12 h, 18, 24 h, 32 h, 40 h, 48 h. Sample Collection: At each time point, approximately 0.15 mL of blood was drawn from the jugular vein sinus, and the collected whole blood was placed in an anticoagulant tube containing EDTA-K2. After collecting blood samples, they were processed with protein precipitation and then analyzed by LC-MS/MS.

[2] = Single-dose subcutaneous injection pharmacokinetic study in SD rats; format: in vivo; settings: Sprague-Dawley, rat, blood, sc, male SD rats, 30 mg/kg, vehicle 80% MCT + 20% benzyl alcohol, read-out: AUC0-696h
Method: Pharmacokinetic Studies in Sprague-Dawley (SD) Rats
1. Single-Dose Subcutaneous Injection Pharmacokinetic Studies Sprague-Dawley (SD) Rats
Pharmacokinetic (PK) studies after a single-dose subcutaneous injection for compounds: 1, 13, 18, 19, 20, 21 and orforglipron. Protocol: Animals: Male Sprague-Dawley (SD) rats; Vehicle: 80% MCT (Medium-Chain Triglycerides)+20% benzyl alcohol; Dose: 30 mg/kg in the vehicle; Dosing concentration: 30 mg/mL; Dosing volume: 1 mL/kg; Administration site: Subcutaneous injection at the back of the animal. Blood sampling time points: pre-dose, 1 h, 2 h, 8 h, 24 h, 48 h, 72 h, 96 h, 120 h, 144 h, 216 h, 312 h, 480 h, 696 h. Blood samples were collected, and the blood samples were analyzed by LC-MS/MS.

T1 sequence (P43220 24-463): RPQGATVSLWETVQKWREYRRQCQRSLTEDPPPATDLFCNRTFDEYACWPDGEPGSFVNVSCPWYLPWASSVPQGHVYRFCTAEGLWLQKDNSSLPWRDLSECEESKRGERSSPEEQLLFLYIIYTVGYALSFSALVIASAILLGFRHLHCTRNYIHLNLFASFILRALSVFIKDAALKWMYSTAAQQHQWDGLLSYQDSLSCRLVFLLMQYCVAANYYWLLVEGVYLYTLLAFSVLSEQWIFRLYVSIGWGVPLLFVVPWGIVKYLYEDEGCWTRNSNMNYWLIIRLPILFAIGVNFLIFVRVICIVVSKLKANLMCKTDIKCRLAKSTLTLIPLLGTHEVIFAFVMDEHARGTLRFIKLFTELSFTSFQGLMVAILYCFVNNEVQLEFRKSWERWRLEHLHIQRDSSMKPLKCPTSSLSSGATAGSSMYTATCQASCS

SMILES	EC50 (hGLP-1R) [pM]	Cmax [1] [ng/mL]	AUC(0-t) [1] [ng·h/mL]	AUC(0-t) [2] [ng·h/mL]
Cc1cc(-n2nc3c(c2-n2ccn(-c4ccc5c(c4)oc(=O)n5C)c2=O)[C@H](C)N(C(=O)c2cc4cc(C5CCOCC5)ccc4n2[C@@]2(c4noc(=O)[nH]4)C[C@@H]2C)CC3)cc(C)c1F [Compound 77]	22	–	–	–
Cc1cc(-n2nc3c(c2-n2ccn(-c4ccc5c(cnn5C5CC5)c4F)c2=O)[C@H](C)N(C(=O)c2cc4cc(C5CCOCC5)ncc4n2[C@@]2(c4noc(=O)[nH]4)C[C@@H]2C)CC3)cc(C)c1F [Compound 66]	14	–	–	–
Cc1cc(-n2nc3c(c2-n2ccn(-c4ccc5c(c4)NCCS5(=O)=O)c2=O)[C@H](C)N(C(=O)c2cc4cc(C5CCOCC5)ccc4n2[C@@]2(c4noc(=O)[nH]4)C[C@@H]2C)CC3)cc(C)c1F [Compound 55]	150	–	–	–
Cc1cc(-n2nc3c(c2-n2ccn(-c4ccc5c(cnn5C5CC5)c4F)c2=O)[C@H](C)N(C(=O)c2cc4nc(C5CCOCC5)ccc4n2[C@@]2(c4noc(=O)[nH]4)C[C@@H]2C)CC3)cc(C)c1F (single isomer, unassigned) [Compound 19]	12	4460	60000	234000
Cc1cc(-n2nc3c(c2-n2ccn(-c4ccc(CP(C)(C)=O)cc4)c2=O)[C@H](C)N(C(=O)c2cc4cc(C5CCOCC5)ccc4n2[C@@]2(c4noc(=O)[nH]4)C[C@@H]2C)CC3)cc(C)c1F [Compound 50]	28	–	–	–
Cc1cc(-n2nc3c(c2-n2ccn(-c4ccc5c(c4F)CCS(=O)(=O)N5C)c2=O)[C@H](C)N(C(=O)c2cc4cc(C5CCOCC5)ccc4n2[C@@]2(c4noc(=O)[nH]4)C[C@@H]2C)CC3)cc(C)c1F [Compound 35]	25	–	–	–
Cc1cc(-n2nc3c(c2-n2ccn(-c4ccc5c(cnn5CC5CC5)c4F)c2=O)[C@H](C)N(C(=O)c2cc4cc(C5CCOC(C)(C)C5)ccc4n2[C@@]2(c4noc(=O)[nH]4)C[C@@H]2C)CC3)cc(C)c1F (stereo partly drawn) [Compound 13]	228	–	–	23400
Cc1cc(-n2nc3c(c2-n2ccn(-c4ccc5c(c4)CS(=O)(=O)N5C)c2=O)[C@H](C)N(C(=O)c2cc4cc(C5CCOCC5)ccc4n2[C@@]2(c4noc(=O)[nH]4)C[C@@H]2C)CC3)cc(C)c1F [Compound 76]	19	–	–	–
Cc1cc(-n2nc3c(c2-n2ccn(-c4ccc5c(c4F)CS(=O)(=O)N5)c2=O)[C@H](C)N(C(=O)c2cc4cc(C5CCOCC5)ccc4n2[C@@]2(c4noc(=O)[nH]4)C[C@@H]2C)CC3)cc(C)c1F [Compound 37]	60	–	–	–
Cc1cc(-n2nc3c(c2-n2ccn(-c4ccc(NS(C)(=O)=O)cc4)c2=O)C2CCC(C3)N2C(=O)c2cc3nc(C4CCOCC4)ccc3n2[C@@]2(c3noc(=O)[nH]3)C[C@@H]2C)cc(C)c1F (stereo partly drawn) [Compound 24]	868	–	–	–
Cc1cc(-n2nc3c(c2-n2ccn(-c4ccc5c(c4F)COB5O)c2=O)[C@H](C)N(C(=O)c2cc4cc(C5CCOC(C)(C)C5)ccc4n2[C@@]2(c4noc(=O)[nH]4)C[C@@H]2C)CC3)cc(C)c1F (stereo partly drawn) [Compound 29]	63	–	–	–
Cc1cc(-n2nc3c(c2-n2ccn(-c4ccc5c(c4F)CCS(=O)(=O)N5)c2=O)[C@H](C)N(C(=O)c2cc4cc(C5CCOCC5)ccc4n2[C@@]2(c4noc(=O)[nH]4)C[C@@H]2C)CC3)cc(C)c1F [Compound 36]	50	–	–	–
Cc1cc(-n2nc3c(c2-n2ccn(-c4ccc5c(cnn5CC5CC5)c4F)c2=O)[C@H](C)N(C(=O)c2cc4cc(C5CCOCC5)ccc4n2[C@@]2(c4noc(=O)[nH]4)C[C@@H]2C)CC3)cc(C)c1F [Compound 21]	44	–	–	61500
Cc1cc(-n2nc3c(c2-n2ccn(-c4ccc5c(cnn5C)c4F)c2=O)[C@H](C)N(C(=O)c2cc4cc([C@H]5CCOC(C)(C)C5)ccc4n2[C@@]2(c4noc(=O)[nH]4)C[C@@H]2C)CC3)cc(C)c1F [Orforglipron, orforglipron, reference compound]	–	799	7220	5390
Cc1cc(-n2nc3c(c2-n2ccn(-c4ccc5c(c4)CCC(=O)N5C)c2=O)[C@H](C)N(C(=O)c2cc4cc(C5CCOCC5)ccc4n2[C@@]2(c4noc(=O)[nH]4)C[C@@H]2C)CC3)cc(C)c1F [Compound 78]	12	–	–	–
Cc1cc(-n2nc3c(c2-n2ccn(-c4ccc5c(cnn5C5CC5)c4F)c2=O)[C@H](C)N(C(=O)c2cc4cc(C5CCOCC5)cnc4n2[C@@]2(c4noc(=O)[nH]4)C[C@@H]2C)CC3)cc(C)c1F [Compound 70]	64	–	–	–
Cc1cc(-n2nc3c(c2-n2ccn(-c4ccc5c(c4F)COB5O)c2=O)[C@H](C)N(C(=O)c2cc4cc(C5CCOCC5)ccc4n2[C@@]2(c4noc(=O)[nH]4)C[C@@H]2C)CC3)cc(C)c1F [Compound 79]	171	–	–	–
Cc1cc(-n2nc3c(c2-n2ccn(-c4ccc5c(cnn5CC5CC5)c4F)c2=O)[C@H](C)N(C(=O)c2cc4cc([C@@H]5CCOC(C)(C)C5)ccc4n2[C@@]2(c4noc(=O)[nH]4)C[C@@H]2C)CC3)cc(C)c1F [Compound 18]	265	–	–	51200
Cc1cc(-n2nc3c(c2-n2ccn(-c4ccc(CP(=O)(C5CC5)C5CC5)cc4)c2=O)[C@H](C)N(C(=O)c2cc4cc(C5CCOCC5)ccc4n2[C@@]2(c4noc(=O)[nH]4)C[C@@H]2C)CC3)cc(C)c1F [Compound 81]	42	–	–	–
Cc1cc(-n2nc3c(c2-n2ccn(-c4ccc5c(cnn5C5CC5)c4F)c2=O)[C@H](C)N(C(=O)c2cc4nc(C5CCOCC5)ccc4n2[C@@]2(c4noc(=O)[nH]4)C[C@@H]2C)CC3)cc(C)c1F [Compound 65]	92	11000	71800	–
Cc1cc(-n2nc3c(c2-n2ccn(-c4ccc5c(cnn5C5CC5)c4F)c2=O)[C@H](C)N(C(=O)c2cc4cc([C@H]5CCOC(C)(C)C5)ccc4n2[C@@]2(c4noc(=O)[nH]4)C[C@@H]2C)CC3)cc(C)c1F [Compound 1]	94	–	–	60300
Cc1cc(-n2nc3c(c2-n2ccn(-c4ccc(CP5(=O)CCCC5)cc4)c2=O)[C@H](C)N(C(=O)c2cc4cc(C5CCOCC5)ccc4n2[C@@]2(c4noc(=O)[nH]4)C[C@@H]2C)CC3)cc(C)c1F [Compound 82]	11	–	–	–
CCP(=O)(CC)Cc1ccc(-n2ccn(-c3c4c(nn3-c3cc(C)c(F)c(C)c3)CCN(C(=O)c3cc5cc(C6CCOCC6)ccc5n3[C@@]3(c5noc(=O)[nH]5)C[C@@H]3C)[C@H]4C)c2=O)cc1 [Compound 80]	38	–	–	–
Cc1cc(-n2nc3c(c2-n2ccn(-c4ccc5c(cnn5C5CCC5)c4F)c2=O)[C@H](C)N(C(=O)c2cc4cc(C5CCOCC5)ccc4n2[C@@]2(c4noc(=O)[nH]4)C[C@@H]2C)CC3)cc(C)c1F [Compound 20]	18	1900	17000	77700
CCOP(=O)(Cc1ccc(-n2ccn(-c3c4c(nn3-c3cc(C)c(F)c(C)c3)CCN(C(=O)c3cc5cc(C6CCOCC6)ccc5n3[C@@]3(c5noc(=O)[nH]5)C[C@@H]3C)[C@H]4C)c2=O)cc1)OCC [Compound 84]	80	–	–	–
